Test system: yeast genes (level of expressed mRNA)
Experiment: DNA chip analysis of expressed mRNA of yeast genes after 2 h culture with a toxic chemical substance
Type: cell-based, Saccharomyces cerevisiae S288C
Procedure: Yeast (Saccharomyces cerevtisiae S288C (α SUC2mal mel gap2 CUP1)) were cultured at 25° C. on YPD medium (yeast extract 1%, polypepton 2%, glucose 2%). One of toxic chemical substances was added to the cell at logarithmic growth phase, and the cell was further cultured for two hours. Cell was cultured without any chemical substance in the same condition, and was used as control. Concentrations of the chemical substances were defined to inhibit the growth of the yeast but not lead to death.
After the completion of cultivation, the culture was centrifuged to collect the cells. To the cells, sodium acetate buffer (50 mM sodium acetate, 10 mM EDTA, 1% SDS) was added, and the mixture was shaken at 65° C. for five minutes, followed by returning to room temperature, and obtaining the supernatant, which procedure was repeated two times. To the supernatant, ½ amount of a solution of phenol/chloroform was added, and the mixture was centrifuged to give a supernatant, which was added with an equal amount of chloroform, and the mixture was centrifuged to give a supernatant. To the supernatant, an equal amount of isopropanol containing 0.3 M sodium acetate was added, and the mixture was allowed to stand at room temperature for 30 minutes, after which the mixture was centrifuged to give a sediment of the whole RNAs. Seventy % ethanol was added to the sediment, and the mixture was again centrifuged to give a sediment, which was then dried and dissolved in water. mRNA was isolated from the whole RNAs as followings. In view of the fact that a poly A chain is attached to the 3′ terminus of mRNA, a polynucleotide having a poly T structure which was immobilized on the surface of latex beads was used to trap the mRNA, and then the mRNA was washed and eluted with spine column (Oligotex-dT30<Super>mRNA Purification Kit, Takara). Reverse transcription of the mRNA was conducted with a reverse transcriptase (Super Script II Reverse Transcriptase; catalogue No. 18064-014, GibcoBRL) using fluorescence-labeled nucleotides to give cDNAs that were introduced with Cy3-dUTP or Cy5-dUTP during the reverse transcription.
The labeled cDNAs were dissolved in TE buffer (10 mM Tris-HCl/1 mM EDTA, pH8.0), and the solution was dropped on the DNA chip containing the whole genes of yeast (DNA Chip Research Inc. Japan) so that the cDNAs were hybridized on the DNA chip at 65° C. for over 12 hours. The fluoresces intensity of the DNA chip was read with a scanner, and the ratio relative to the fluorescence intensity resulting from the absence of chemical substance was estimated as the following, which is shown in Tables 1 to 9: [formula]
In the Tables, “Intensity” indicated in the rightmost column is a value of the level of expressed mRNA of each gene in control cells as divided by the average level of the expressions of the whole genes.

C[S+](C)[O-] [(15), dimethylsulfoxide]
0.6: The level of expressed mRNA in the presence of chemical substance/absence: YHL006C (gene YHL006C) | level of expressed mRNA in the presence of chemical substance/in its absence (gene YIL167W) | level of expressed mRNA in the presence of chemical substance/in its absence (gene YJL196C) | level of expressed mRNA in the presence of chemical substance/in its absence (gene YJR142W) | The level of expressed mRNA in the presence of chemical substance/absence: YMR258C (gene YMR258C) | level of expressed mRNA in the presence of chemical substance/in its absence (gene YMR271C) | The level of expressed mRNA in the presence of chemical substance/absence: YNL265C (gene YNL265C)
2.8: level of expressed mRNA in the presence of chemical substance/in its absence (gene YHR137W)
6.7: level of expressed mRNA in the presence of chemical substance/in its absence (gene YMR296C)
1.1: level of expressed mRNA in the presence of chemical substance/in its absence (gene YHR037W) | The level of expressed mRNA in the presence of chemical substance/absence: YJL017W (gene YJL017W) | The level of expressed mRNA in the presence of chemical substance/absence: YJL097W (gene YJL097W) | level of expressed mRNA in the presence of chemical substance/in its absence (gene YJL132W) | The level of expressed mRNA in the presence of chemical substance/absence: YKL059C (gene YKL059C) | level of expressed mRNA in the presence of chemical substance/in its absence (gene YKL067W) | The level of expressed mRNA in the presence of chemical substance/absence: YKR040C (gene YKR040C) | level of expressed mRNA in the presence of chemical substance/in its absence (gene YMR272C) | level of expressed mRNA in the presence of chemical substance/in its absence (gene YOL157C) | The level of expressed mRNA in the presence of chemical substance/absence: YOR253W (gene YOR253W)
1.8: The level of expressed mRNA in the presence of chemical substance/absence: YIL108W (gene YIL108W)
0.9: The level of expressed mRNA in the presence of chemical substance/absence: YHR105W (gene YHR105W) | The level of expressed mRNA in the presence of chemical substance/absence: YLR097C (gene YLR097C) | level of expressed mRNA in the presence of chemical substance/in its absence (gene YMR105C) | level of expressed mRNA in the presence of chemical substance/in its absence (gene YNL037C) | The level of expressed mRNA in the presence of chemical substance/absence: YNL212W (gene YNL212W) | level of expressed mRNA in the presence of chemical substance/in its absence (gene YNL231C) | The level of expressed mRNA in the presence of chemical substance/absence: YOL026C (gene YOL026C) | The level of expressed mRNA in the presence of chemical substance/absence: YOL030W (gene YOL030W) | The level of expressed mRNA in the presence of chemical substance/absence: YOR155C (gene YOR155C)
2.6: level of expressed mRNA in the presence of chemical substance/in its absence (gene YLR273C)
1.7: The level of expressed mRNA in the presence of chemical substance/absence: YKL100C (gene YKL100C) | level of expressed mRNA in the presence of chemical substance/in its absence (gene YKR039W)
1.2: The level of expressed mRNA in the presence of chemical substance/absence: YHL021C (gene YHL021C) | The level of expressed mRNA in the presence of chemical substance/absence: YMR114C (gene YMR114C) | The level of expressed mRNA in the presence of chemical substance/absence: YMR115W (gene YMR115W) | The level of expressed mRNA in the presence of chemical substance/absence: YNR051C (gene YNR051C) | level of expressed mRNA in the presence of chemical substance/in its absence (gene YOL153C) | level of expressed mRNA in the presence of chemical substance/in its absence (gene YOR136W)
0.7: The level of expressed mRNA in the presence of chemical substance/absence: YGR293C (gene YGR293C) | The level of expressed mRNA in the presence of chemical substance/absence: YIL127C (gene YIL127C) | The level of expressed mRNA in the presence of chemical substance/absence: YNL063W (gene YNL063W)
1.0: The level of expressed mRNA in the presence of chemical substance/absence: YHR134W (gene YHR134W) | level of expressed mRNA in the presence of chemical substance/in its absence (gene YIL033C) | The level of expressed mRNA in the presence of chemical substance/absence: YJL032W (gene YJL032W) | The level of expressed mRNA in the presence of chemical substance/absence: YKL094W (gene YKL094W) | The level of expressed mRNA in the presence of chemical substance/absence: YLR339C (gene YLR339C) | The level of expressed mRNA in the presence of chemical substance/absence: YLR415C (gene YLR415C) | The level of expressed mRNA in the presence of chemical substance/absence: YML041C (gene YML041C) | The level of expressed mRNA in the presence of chemical substance/absence: YNL181W (gene YNL181W) | The level of expressed mRNA in the presence of chemical substance/absence: YNL191W (gene YNL191W) | level of expressed mRNA in the presence of chemical substance/in its absence (gene YNR002C) | level of expressed mRNA in the presence of chemical substance/in its absence (gene YNR059W) | level of expressed mRNA in the presence of chemical substance/in its absence (gene YOL143C) | level of expressed mRNA in the presence of chemical substance/in its absence (gene YOR130C) | The level of expressed mRNA in the presence of chemical substance/absence: YOR138C (gene YOR138C)
5.7: level of expressed mRNA in the presence of chemical substance/in its absence (gene YJL088W)
1.4: The level of expressed mRNA in the presence of chemical substance/absence: YHR181W (gene YHR181W) | level of expressed mRNA in the presence of chemical substance/in its absence (gene YIR035C) | level of expressed mRNA in the presence of chemical substance/in its absence (gene YOL126C)
0.3: The level of expressed mRNA in the presence of chemical substance/absence: YML079W (gene YML079W)
2.2: The level of expressed mRNA in the presence of chemical substance/absence: YML013W (gene YML013W) | The level of expressed mRNA in the presence of chemical substance/absence: YML118W (gene YML118W) | The level of expressed mRNA in the presence of chemical substance/absence: YMR068W (gene YMR068W) | The level of expressed mRNA in the presence of chemical substance/absence: YNL058C (gene YNL058C)
3.2: level of expressed mRNA in the presence of chemical substance/in its absence (gene YJR148W)
2.7: level of expressed mRNA in the presence of chemical substance/in its absence (gene YLR300W) | level of expressed mRNA in the presence of chemical substance/in its absence (gene YOL058W)
3.4: level of expressed mRNA in the presence of chemical substance/in its absence (gene YNL169C)
0.5: The level of expressed mRNA in the presence of chemical substance/absence: YLR392C (gene YLR392C) | The level of expressed mRNA in the presence of chemical substance/absence: YNL194C (gene YNL194C) | The level of expressed mRNA in the presence of chemical substance/absence: YNL253W (gene YNL253W) | The level of expressed mRNA in the presence of chemical substance/absence: YNL276C (gene YNL276C)
2.3: level of expressed mRNA in the presence of chemical substance/in its absence (gene YJR159W)
1.6: The level of expressed mRNA in the presence of chemical substance/absence: YJL037W (gene YJL037W) | The level of expressed mRNA in the presence of chemical substance/absence: YJR044C (gene YJR044C) | level of expressed mRNA in the presence of chemical substance/in its absence (gene YLR142W) | level of expressed mRNA in the presence of chemical substance/in its absence (gene YNL012W) | level of expressed mRNA in the presence of chemical substance/in its absence (gene YNR019W)
4.3: level of expressed mRNA in the presence of chemical substance/in its absence (gene YIL154C)
1.3: The level of expressed mRNA in the presence of chemical substance/absence: YHR083W (gene YHR083W) | level of expressed mRNA in the presence of chemical substance/in its absence (gene YHR190W) | The level of expressed mRNA in the presence of chemical substance/absence: YLR226W (gene YLR226W) | level of expressed mRNA in the presence of chemical substance/in its absence (gene YML110C) | level of expressed mRNA in the presence of chemical substance/in its absence (gene YNR033W)
3.7: level of expressed mRNA in the presence of chemical substance/in its absence (gene YNL322C)
2.5: level of expressed mRNA in the presence of chemical substance/in its absence (gene YLR180W) | level of expressed mRNA in the presence of chemical substance/in its absence (gene YNL104C) | level of expressed mRNA in the presence of chemical substance/in its absence (gene YNL130C)
1.5: The level of expressed mRNA in the presence of chemical substance/absence: YKL051W (gene YKL051W) | The level of expressed mRNA in the presence of chemical substance/absence: YLR338W (gene YLR338W) | The level of expressed mRNA in the presence of chemical substance/absence: YMR160W (gene YMR160W) | level of expressed mRNA in the presence of chemical substance/in its absence (gene YOR099W)
0.8: The level of expressed mRNA in the presence of chemical substance/absence: YHL037C (gene YHL037C) | The level of expressed mRNA in the presence of chemical substance/absence: YHR095W (gene YHR095W) | The level of expressed mRNA in the presence of chemical substance/absence: YHR180W (gene YHR180W) | The level of expressed mRNA in the presence of chemical substance/absence: YIL165C (gene YIL165C) | The level of expressed mRNA in the presence of chemical substance/absence: YJL049W (gene YJL049W) | The level of expressed mRNA in the presence of chemical substance/absence: YJR030C (gene YJR030C) | The level of expressed mRNA in the presence of chemical substance/absence: YKL090W (gene YKL090W) | The level of expressed mRNA in the presence of chemical substance/absence: YKL097C (gene YKL097C) | The level of expressed mRNA in the presence of chemical substance/absence: YLR427W (gene YLR427W) | The level of expressed mRNA in the presence of chemical substance/absence: YML029W (gene YML029W) | The level of expressed mRNA in the presence of chemical substance/absence: YMR071C (gene YMR071C) | The level of expressed mRNA in the presence of chemical substance/absence: YNL026W (gene YNL026W) | level of expressed mRNA in the presence of chemical substance/in its absence (gene YNL045W) | The level of expressed mRNA in the presence of chemical substance/absence: YNL176C (gene YNL176C) | The level of expressed mRNA in the presence of chemical substance/absence: YNL200C (gene YNL200C) | The level of expressed mRNA in the presence of chemical substance/absence: YOR022C (gene YOR022C) | The level of expressed mRNA in the presence of chemical substance/absence: YOR087W (gene YOR087W) | The level of expressed mRNA in the presence of chemical substance/absence: YOR088W (gene YOR088W)
0.2: level of expressed mRNA in the presence of chemical substance/in its absence (gene YHR092C)
3.3: level of expressed mRNA in the presence of chemical substance/in its absence (gene YNL106C)
3.9: level of expressed mRNA in the presence of chemical substance/in its absence (gene YLR307W)
5.6: level of expressed mRNA in the presence of chemical substance/in its absence (gene YMR189W)
